Values quoted from earlier work in US11944640B2, “Zinc-[gamma]-PGA compositions and methods for treating cancer” (XYLONIX PTE. LTD., priority 2016, dated 2024).

Assays:
[1] = test system: folate receptor (FR), FR-α and FR-β; settings: FR-α vs FR-β
rats = settings: 9˜14 days of dietary administration (240 ppm)
[2] = test system: androgen-dependent LNCaP and androgen-independent PC3, DU145 prostate cancer cell lines; settings: micromolar concentrations (1-10 μM)
[3] = test system: leukocyte-originating cells, including murine thymocytes, murine splenic lymphocytes, human Ramos B, and human Jurkat T cells; settings: nanomolar concentrations

| affinity for folate receptor isoforms (selectivity) [1] | Compound | toxicity (rats) | mode of cell death [2] | mode of cell death [3] |
| --- | --- | --- | --- | --- |
| higher affinity for FR-α over FR-β | CN(CC1CNc2nc(N)[nH]c(=O)c2N1C)c1ccc(C(=O)N[C@@H](CCC(=O)O)C(=O)O)cc1 (stereo partly shown) [DMTHF, N^5,N^10-dimethyl tetrahydrofolate] | – | – | – |
| – | zinc pyrithione | acute neurological toxicity | elicited ATP-depletion and, eventually, ERK and PKC-dependent necrosis | induced zinc-specific apoptosis |
